Results on three compounds are retold here after patent US20060063179A1, “MIFL- a new partner gene of MLL and methods of use thereof” (priority 2004, published 2006).

Sequence of human DNA topoisomerase II (P11388 whole entry): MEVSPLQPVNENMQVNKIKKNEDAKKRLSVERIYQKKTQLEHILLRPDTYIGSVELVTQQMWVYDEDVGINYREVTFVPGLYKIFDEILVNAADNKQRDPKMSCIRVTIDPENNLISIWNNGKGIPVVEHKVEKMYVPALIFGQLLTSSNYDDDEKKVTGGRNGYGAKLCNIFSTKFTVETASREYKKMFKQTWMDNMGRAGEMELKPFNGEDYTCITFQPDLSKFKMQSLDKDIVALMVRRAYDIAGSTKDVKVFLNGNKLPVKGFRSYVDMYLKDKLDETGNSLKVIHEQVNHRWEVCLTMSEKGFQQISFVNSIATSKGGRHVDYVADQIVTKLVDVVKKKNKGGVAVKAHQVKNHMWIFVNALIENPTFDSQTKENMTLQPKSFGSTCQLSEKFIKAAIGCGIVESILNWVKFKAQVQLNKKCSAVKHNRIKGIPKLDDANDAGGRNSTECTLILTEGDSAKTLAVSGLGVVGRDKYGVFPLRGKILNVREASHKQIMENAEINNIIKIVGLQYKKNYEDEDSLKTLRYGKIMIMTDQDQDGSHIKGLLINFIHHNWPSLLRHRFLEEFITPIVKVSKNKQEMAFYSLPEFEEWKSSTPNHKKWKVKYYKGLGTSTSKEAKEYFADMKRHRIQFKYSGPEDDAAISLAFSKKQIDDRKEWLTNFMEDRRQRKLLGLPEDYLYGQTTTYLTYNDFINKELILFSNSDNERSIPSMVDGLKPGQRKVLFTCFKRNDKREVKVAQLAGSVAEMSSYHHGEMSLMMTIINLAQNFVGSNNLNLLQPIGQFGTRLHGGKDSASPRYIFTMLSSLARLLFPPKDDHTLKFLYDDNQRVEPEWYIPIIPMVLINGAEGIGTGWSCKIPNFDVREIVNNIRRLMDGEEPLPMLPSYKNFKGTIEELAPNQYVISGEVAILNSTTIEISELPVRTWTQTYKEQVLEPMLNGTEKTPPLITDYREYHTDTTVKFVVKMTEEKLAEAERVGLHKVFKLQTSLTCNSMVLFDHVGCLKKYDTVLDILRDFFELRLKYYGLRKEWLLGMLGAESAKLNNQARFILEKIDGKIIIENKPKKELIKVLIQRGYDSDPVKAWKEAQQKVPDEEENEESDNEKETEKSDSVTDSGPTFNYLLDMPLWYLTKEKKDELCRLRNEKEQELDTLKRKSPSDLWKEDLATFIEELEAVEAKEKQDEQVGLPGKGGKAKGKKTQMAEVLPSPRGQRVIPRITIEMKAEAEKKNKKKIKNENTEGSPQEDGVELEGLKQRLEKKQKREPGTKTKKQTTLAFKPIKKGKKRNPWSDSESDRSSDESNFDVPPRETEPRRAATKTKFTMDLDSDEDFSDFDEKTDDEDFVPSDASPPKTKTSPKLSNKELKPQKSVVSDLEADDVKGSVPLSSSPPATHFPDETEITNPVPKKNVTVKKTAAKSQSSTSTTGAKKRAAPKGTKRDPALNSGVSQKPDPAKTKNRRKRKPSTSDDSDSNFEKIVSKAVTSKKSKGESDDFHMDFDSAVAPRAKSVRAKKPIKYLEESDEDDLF

This test deals with human DNA topoisomerase II (Homo sapiens, UniProt P11388). Nature of the test: DNA topoisomerase II in vitro cleavage assay. Type of test: biochemical. The following applies: singly 5' end-labeled MLL intron 8 and MIFL intron 8 substrates; 147 nM enzyme, 1 mM ATP, 20 μM drug, 10 min 37° C. How it is done:
FIGS. 8A-8D provide images of autoradiographs depicting MLL bcr positions 5382-5570 (FIGS. 8A and 8B) or positions 1387 to 1424 in MIFL intron 8 (FIGS. 8C and 8D) identified utilizing topoisomerase II in vitro cleavage assays. Autoradiographs show cleavage products after 10 minute incubation at 37° C. of 25 ng (30,000 cpm) singly 5' end-labeled DNA with 147 nM human DNA topoisomerase II, 1 mM ATP and, where indicated, 20 μM etoposide, etoposide catechol, etoposide quinone or doxorubicin (FIGS. 8A and 8C), or lower doxorubicin concentrations (FIGS. 8B and 8D). Specified reactions were incubated for an additional 10 minutes at 75° C. before trapping the covalent complexes (FIGS. 8A and 8C). The 5' side (-1 position) of the cleavage sites are shown by the dashes at far right. Fragments of the MLL bcr spanning positions 5382-5570 in intron 8 or fragments of MIFL spanning positions 1309-1479 in intron 8 were subcloned into BamHI-NotI sites of TOPO pCR2.1 (Invitrogen). Twenty micrograms of plasmid DNA first was treated with 400 units T4 DNA ligase (New England Biolabs; Beverly, Mass.) for 1 hour to ensure that the substrates were not nicked. […] Calf intestinal phosphatase was inactivated in 5 mM EDTA (pH 8.0) and the DNA was PCI-extracted and ethanol precipitated. The DNA was then 5' end-labeled with [γ-^32P]ATP (Amersham; Arlington Heights, Ill.) and T4 polynucleotide kinase (New England Biolabs) as described (Felix et al. (1995) Cancer Res., 55:4287-92). Alternatively, to prepare cold substrate DNA, 20 μg of BamHI/NotI-digested, dephosphorylated plasmid were phosphorylated with 10 μM ATP (Boehringer Mannheim; Indianapolis, Ind.) in otherwise similar reactions. […] DNA recovery was quantitated by optical density measurement and scintillation counting. […] Cleavage products were visualized by autoradiography and quantitated using a PhosphorImager and ImageQuant software (Molecular Dynamics; Sunnyvale, Calif.).
On to `COc1cccc2c1C(=O)c1c(O)c3c(c(O)c1C2=O)C[C@@](O)(C(=O)CO)C[C@@H]3O[C@H]1C[C@H](N)[C@H](O)[C@H](C)O1` [dox, doxorubicin], for which the “formation of DNA topoisomerase II cleavage complexes at or near the translocation breakpoints” value is on record as “marginal activity”.
The result for `COC1=CC(C2c3cc4c(cc3C(O[C@@H]3O[C@@H]5COC(C)O[C@H]5[C@H](O)[C@H]3O)C3COC(=O)C23)OCO4)=CC(=O)C1=O` (stereo partly drawn) [etoposide quinone] reads “increased the formation of DNA topoisomerase II cleavage complexes”.
The result for `COc1cc([C@@H]2c3cc4c(cc3[C@@H](O[C@@H]3O[C@@H]5CO[C@@H](C)O[C@H]5[C@H](O)[C@H]3O)[C@H]3COC(=O)[C@H]23)OCO4)cc(OC)c1O` [etoposide] reads “increased the formation of DNA topoisomerase II cleavage complexes”.
